Experimental data: patent publication US20250197387A1, “BCL-XL DEGRADERS AND USES THEREOF” (Kymera Therapeutics, Inc., priority 2021, published 2025)

Assays:
Assay type in all cases: cell-based
MOLT-4 cells = assay: CTG (CellTiter-Glo) cell viability assay, MOLT-4; settings: Homo sapiens, MOLT-4, 72 h, 3 day incubation, read-out: CTG Cell Viability Assay - MOLT-4 3 day: Average external-IC50
Experimental: Compound-mediated viability effect on MOLT-4 and Caki-2 was quantitatively determined using the CellTiter-Glo® Luminescent Cell Viability Assay kit from Promega (Catalog number G7570) following manufacturer's recommended procedures. Briefly, MOLT-4 and Caki-2 cells were seeded into 384 well plates (Grenier Bio-One, Catalog number 781080) with a density of 10,000 cells per well. Compounds were then added to the assay plate with final top concentration of 10 μM and 1:3 dilution series with total of 9 doses. The final DMSO concentration is normalized to 0.2%. The assay plates were incubated at 37° C., for 3 days under 5% CO2. Then the assay plate was equilibrated at room temperature for 10 minutes. To determine cell viability, 30 uL CellTiter Glo reagent was added to each well and the assay plate was centrifuged at 1000 rpm for 30 second, incubated at room temperature for 10 min, and analyzed by detecting the luminescence using a multimode plate reader (EnVision 2105, PerkinElmer). The data was then analyzed by software Prism 7.0 from GraphPad and the dose response curves are fit using a three-parameter logistic equation to calculate IC50.
The letter codes for MOLT-4 IC50 include: A (<0.1 μM); B (0.1-1.0 μM); C (>1.0-3.0 μM); and D (>3.0 μM). The letter codes for Caki-2 IC50 include: A (<0.1 μM); B (0.1-1.0 μM); C (>1.0-10.0 μM); and D (>10.0 μM).

BCL-XL [1] = target: T1, BCL-XL (Homo sapiens, UniProt Q07817); assay: Bcl-xL ELISA degradation in MOLT-4 cells, 6 h; settings: for DC50: read-out: Bcl-xL ELISA in MOLT-4 degradation 6 h: Mean external-Abs DC50
T1 construct: endogenous in cells; host or cells: MOLT-4
Experimental: The letter codes for BCL-XL DC50 include: A (<0.01 μM); B (0.01-0.1 μM); C (>[…]); D (>0.5-1.0 μM); and E (>1.0 μM). The letter codes for Dmax % include A (>75%); B (50 to 75%); C (<50%).

BCL-XL [2] = target: T1, BCL-XL; assay: BCL-XL degradation assay, western blot in MOLT-4 cells, 16 h; settings: western blot, MOLT-4 cells, 16 h
Method in brief: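 MOLT-4 cells treated with compounds at 0.02-10 μM final for 16 hr at 37° C; lysates analysed by western blot with anti-BCL-xL, beta-actin and GAPDH loading controls, infrared imaging and densitometry; DC50 and Dmax % reported as letter codes.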

T1 sequence (Q07817 whole entry): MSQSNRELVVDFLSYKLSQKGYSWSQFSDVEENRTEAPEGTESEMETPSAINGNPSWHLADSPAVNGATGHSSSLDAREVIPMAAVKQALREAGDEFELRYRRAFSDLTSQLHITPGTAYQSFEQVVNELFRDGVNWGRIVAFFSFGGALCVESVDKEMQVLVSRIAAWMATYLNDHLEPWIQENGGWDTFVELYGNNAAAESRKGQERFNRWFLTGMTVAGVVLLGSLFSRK

Row | Structure (SMILES) | IC50 (MOLT-4 cells) | also measured
1 | Cc1ncsc1-c1ccc(CNC(=O)[C@@H]2C[C@@H](O)CN2C(=O)[C@@H](NC(=O)C2(F)CC2)C(C)(C)C)c(OCCCC(=O)N(C)CC[C@H](CSc2ccccc2)Nc2ccc(S(=O)(=O)NC(=O)c3ccc(N4CCN(CC5=C(c6ccc(Cl)cc6)CCC(C)(C)C5)CC4)cc3)cc2S(=O)(=O)C(F)(F)F)c1 [I-146] | 0.1 to 1 µM | –
2 | Cc1ncsc1-c1ccc([C@H](CC(=O)N(C)CCCCCC(=O)N2CCN(CC[C@H](CSc3ccccc3)Nc3ccc(S(=O)(=O)NC(=O)c4ccc(N5CCN(CC6=C(c7ccc(Cl)cc7)CCC(C)(C)C6)CC5)cc4)cc3S(=O)(=O)C(F)(F)F)CC2)NC(=O)[C@@H]2C[C@@H](O)CN2C(=O)[C@@H](NC(=O)C2(F)CC2)C(C)(C)C)cc1 [I-147] | 1 to 3 µM | –
3 | Cc1ncsc1-c1ccc([C@H](C)NC(=O)[C@@H]2C[C@@H](O)CN2C(=O)[C@@H](NC(=O)CCCCCCCCC(=O)N(C)CC#Cc2ccc(OCCCc3ccc(N4CCc5cccc(C(=O)Nc6nc7ccccc7s6)c5C4)nc3C(=O)O)c(F)c2)C(C)(C)C)cc1 [I-148] | < 0.1 µM | –
4 | Cc1ncsc1-c1ccc([C@H](C)NC(=O)[C@@H]2C[C@@H](O)CC2C(=O)[C@@H](NC(=O)CCCC(=O)N2CCN(C(=O)COC3(Cn4cc(-c5ccc(N6CCc7cccc(C(=O)Nc8nc9ccccc9s8)c7C6)nc5C(=O)O)cn4)CCCCC3)CC2)C(C)(C)C)cc1 (stereo partly shown) [I-149] | > 3 µM | –
5 | Cc1ncsc1-c1ccc([C@H](C)NC(=O)[C@@H]2C[C@@H](O)CN2C(=O)[C@@H](NC(=O)CCCC(=O)N(C)CCCC2(Cn3ncc(-c4ccc(N5CCc6cccc(C(=O)Nc7nc8ccccc8s7)c6C5)nc4C(=O)O)c3C)CCCCC2)C(C)(C)C)cc1 [I-150] | 0.1 to 1 µM | –
6 | Cc1ncsc1-c1ccc([C@H](C)NC(=O)[C@@H]2C[C@@H](O)CN2C(=O)[C@@H](NC(=O)COCCN2CCC(NC(=O)c3nc(N4CCc5cccc(C(=O)Nc6nc7ccccc7s6)c5C4)ccc3-c3cnn(CC4CCCCC4)c3C)CC2)C(C)(C)C)cc1 [I-152] | 1 to 3 µM | –
7 | Cc1ncsc1-c1ccc([C@H](C)NC(=O)[C@@H]2C[C@@H](O)CN2C(=O)[C@@H](NC(=O)N2CC(CN3CCC(CNC(=O)c4nc(N5CCc6cccc(C(=O)Nc7nc8ccccc8s7)c6C5)ccc4-c4cnn(CC5CCCCC5)c4C)CC3)C2)C(C)(C)C)cc1 [I-153] | 1 to 3 µM | –
8 | Cc1ncsc1-c1ccc([C@H](C)NC(=O)[C@@H]2C[C@@H](O)CN2C(=O)[C@@H](NC(=O)C2(F)CC2)C(C)(C)C)c(OCCN2CCN(CC[C@H](CSc3ccccc3)Nc3ccc(S(=O)(=O)NC(=O)c4ccc(N5CCN(CC6=C(c7ccc(Cl)cc7)CCC(C)(C)C6)CC5)cc4)cc3S(=O)(=O)C(F)(F)F)CC2)c1 [I-154] | 1 to 3 µM | –
9 | Cc1ncsc1-c1ccc(CNC(=O)[C@@H]2C[C@@H](O)CN2C(=O)[C@@H](NC(=O)C2(F)CC2)C(C)(C)C)c(OCC(C)N2CCN(CC[C@H](CSc3ccccc3)Nc3ccc(S(=O)(=O)NC(=O)c4ccc(N5CCN(CC6=C(c7ccc(Cl)cc7)CCC(C)(C)C6)CC5)cc4)cc3S(=O)(=O)C(F)(F)F)CC2)c1 (stereo partly shown) [I-155] | < 0.1 µM | –
10 | Cc1cc(N(CCCC(=O)N(C)CCOCC(=O)N[C@H](C(=O)N2C[C@H](O)C[C@H]2C(=O)N[C@@H](C)c2ccc(-c3scnc3C)cc2)C(C)(C)C)c2ccc(-c3cnn(CC4CCCCC4)c3C)c(C(=O)O)n2)nnc1Nc1nc2ccccc2s1 [I-156] | > 3 µM | –
11 | Cc1cc(N(CCCC(=O)N(C)CCCCOCC(=O)N[C@H](C(=O)N2C[C@H](O)C[C@H]2C(=O)N[C@@H](C)c2ccc(-c3scnc3C)cc2)C(C)(C)C)c2ccc(-c3cnn(CC4CCCCC4)c3C)c(C(=O)O)n2)nnc1Nc1nc2ccccc2s1 [I-157] | > 3 µM | –
12 | Cc1ncsc1-c1ccc([C@@H](CC(=O)N(C)CCCCCC(=O)N2CCN(CC[C@H](CSc3ccccc3)Nc3ccc(S(=O)(=O)NC(=O)c4ccc(N5CCN(CC6=C(c7ccc(Cl)cc7)CCC(C)(C)C6)CC5)cc4)cc3S(=O)(=O)C(F)(F)F)CC2)NC(=O)[C@@H]2C[C@@H](O)CN2C(=O)[C@@H](NC(=O)C2(F)CC2)C(C)(C)C)cc1 [I-159] | 0.1 to 1 µM | –
13 | Cc1ncsc1-c1ccc([C@H](C)NC(=O)[C@@H]2C[C@@H](O)CN2C(=O)[C@@H](NC(=O)CCCCCC(=O)N2CCN(CC[C@H](CSc3ccccc3)Nc3ccc(S(=O)(=O)NC(=O)c4cccc(N5CCc6cccc(C(=O)Nc7nc8ccccc8s7)c6C5)n4)cc3S(=O)(=O)C(F)(F)F)CC2)C(C)(C)C)cc1 [I-160] | > 3 µM | –
14 | Cc1ncsc1-c1ccc(CNC(=O)[C@@H]2C[C@@H](O)CN2C(=O)[C@@H](NC(=O)C2(F)CC2)C(C)(C)C)c(OCC(=O)N(C)CC[C@H](CSc2ccccc2)Nc2ccc(S(=O)(=O)NC(=O)c3ccc(N4CCN(CC5=C(c6ccc(Cl)cc6)CCC(C)(C)C5)CC4)cc3)cc2S(=O)(=O)C(F)(F)F)c1 [I-161] | > 3 µM | –
15 | Cc1ncsc1-c1ccc([C@@H](C)NC(=O)[C@@H]2C[C@@H](O)CN2C(=O)[C@@H](NC(=O)CCCCCC(=O)N(C)CCCC2(Cn3ncc(-c4ccc(N5CCc6cccc(C(=O)Nc7nc8ccccc8s7)c6C5)nc4C(=O)O)c3C)CCCCC2)C(C)(C)C)cc1 [I-162] | 0.1 to 1 µM | –
16 | Cc1ncsc1-c1ccc([C@H](C)NC(=O)[C@@H]2C[C@@H](O)CN2C(=O)[C@@H](NC(=O)COC2CCN(CCNC(=O)c3nc(N4CCc5cccc(C(=O)Nc6nc7ccccc7s6)c5C4)ccc3-c3cnn(CC4CCCCC4)c3C)CC2)C(C)(C)C)cc1 [I-163] | 0.1 to 1 µM | –
17 | Cc1ncsc1-c1ccc([C@H](C)NC(=O)[C@@H]2C[C@@H](O)CN2C(=O)[C@@H](NC(=O)CN2CCN(CCNC(=O)c3nc(N4CCc5cccc(C(=O)Nc6nc7ccccc7s6)c5C4)ccc3-c3cnn(CC4CCCCC4)c3C)CC2)C(C)(C)C)cc1 [I-164] | 0.1 to 1 µM | –
18 | Cc1ncsc1-c1ccc([C@H](C)NC(=O)[C@@H]2C[C@@H](O)CN2C(=O)C(c2cc(N3CC4(CCN(CCNC(=O)c5nc(N6CCc7cccc(C(=O)Nc8nc9ccccc9s8)c7C6)ccc5-c5cnn(CC6CCCCC6)c5C)CC4)C3)no2)C(C)C)cc1 (stereo partly shown) [I-165] | 0.1 to 1 µM | –
19 | Cc1ncsc1-c1ccc([C@H](C)NC(=O)[C@@H]2C[C@@H](O)CN2C(=O)[C@H](NC(=O)CCCCCCCS(=O)(=O)NC(=O)c2nc(N3CCc4cccc(C(=O)Nc5nc6ccccc6s5)c4C3)ccc2-c2cnn(CC3CCOCC3)c2C)C(C)(C)C)cc1 [I-166] | 0.1 to 1 µM | –
20 | Cc1ncsc1-c1ccc(CNC(=O)[C@@H]2C[C@@H](O)CN2C(=O)[C@@H](NC(=O)C2(F)CC2)C(C)(C)C)c(OCCN2CCN(CC[C@H](CSc3ccccc3)Nc3ccc(S(=O)(=O)NC(=O)c4csc(N5CCc6cccc(C(=O)Nc7nc8ccccc8s7)c6C5)n4)cc3S(=O)(=O)C(F)(F)F)CC2)c1 [I-167] | 0.1 to 1 µM | –
21 | Cc1ncsc1-c1ccc(CNC(=O)[C@@H]2C[C@@H](O)CN2C(=O)[C@@H](NC(=O)C2(F)CC2)C(C)(C)C)c(OCCCCC(=O)N2CCN(CCCC3(Cn4ncc(-c5ccc(N6CCc7cccc(C(=O)Nc8nc9ccccc9s8)c7C6)nc5C(=O)O)c4C)CCCCC3)CC2)c1 [I-169] | 0.1 to 1 µM | –
22 | Cc1ncsc1-c1ccc(CNC(=O)[C@@H]2C[C@@H](O)CN2C(=O)[C@@H](NC(=O)C2(F)CC2)C(C)(C)C)c(CCCN2CCN(CC[C@H](CSc3ccccc3)Nc3ccc(S(=O)(=O)NC(=O)c4ccc(N5CCN(CC6=C(c7ccc(Cl)cc7)CCC(C)(C)C6)CC5)cc4)cc3S(=O)(=O)C(F)(F)F)CC2)c1 [I-211] | 0.1 to 1 µM | Dmax (BCL-XL [1]): < 50%; DC50 (BCL-XL [1]): > 1 µM
23 | Cc1ncsc1-c1ccc([C@H](C)NC(=O)[C@@H]2C[C@@H](O)CN2C(=O)[C@@H](c2cc(N3CCN(c4ccc(S(=O)(=O)NC(=O)c5nc(N6CCc7cccc(C(=O)Nc8nc9ccccc9s8)c7C6)ccc5-c5cnn(CC6CCCCC6)c5C)cc4)CC3)no2)C(C)C)cc1 [I-214] | 0.1 to 1 µM | Dmax (BCL-XL [1]): > 75%; DC50 (BCL-XL [1]): 0.01 to 0.1 µM
24 | Cc1ncsc1-c1ccc(CNC(=O)[C@@H]2C[C@@H](O)CN2C(=O)[C@@H](NC(=O)C2(F)CC2)C(C)(C)C)c(OC2CCN(CCNC(=O)c3nc(N4CCc5cccc(C(=O)Nc6nc7ccccc7s6)c5C4)ccc3-c3cnn(CC4CCCCC4)c3C)CC2)c1 [I-215] | 0.1 to 1 µM | Dmax (BCL-XL [1]): 50 to 75%; DC50 (BCL-XL [1]): 0.1 to 0.5 µM
25 | Cc1cc(N2CCC(C(=O)N[C@H](C(=O)N3C[C@H](O)C[C@H]3C(=O)N[C@@H](C)c3ccc(-c4scnc4C)cc3)C(C)(C)C)CC2)ccc1S(=O)(=O)NC(=O)c1nc(N2CCc3cccc(C(=O)Nc4nc5ccccc5s4)c3C2)ccc1-c1cnn(CC2CCCCC2)c1C [I-275] | – | Dmax (BCL-XL [1]): > 75%; DC50 (BCL-XL [1]): 0.01 to 0.1 µM; Dmax (BCL-XL [2]; read-out: Bcl-xL WB in MOLT-4 degradation 16 h: Average Dmax %): > 75%; DC50 (BCL-XL [2]; read-out: Bcl-xL WB in MOLT-4 degradation 16 h: Mean external-Abs DC50): < 0.01 µM
